# Experimental data published in article doi:10.1101/2021.09.30.462449v1 (biorxiv, 2021).
# How the values were obtained:
# Assay in all cases: biochemical
# Conditions in all cases: read-out: % inhibition mean (Lanthascreen)
# ALK C1156Y = ALK C1156Y (Homo sapiens, UniProt Q9UM73, C1156Y)
# ABL1 H396P = ABL1 H396P (Homo sapiens, UniProt P00519, H396P)
# CDK13/cyclin K = CDK13/cyclin K (Homo sapiens, UniProt Q14004)
# MERTK (cMER) A708S = MERTK (cMER) A708S (Homo sapiens, UniProt Q12866, A708S)
# RIPK3 = RIPK3 (Homo sapiens, UniProt Q9Y572)
# Sequence of RIPK3 (Q9Y572 whole entry): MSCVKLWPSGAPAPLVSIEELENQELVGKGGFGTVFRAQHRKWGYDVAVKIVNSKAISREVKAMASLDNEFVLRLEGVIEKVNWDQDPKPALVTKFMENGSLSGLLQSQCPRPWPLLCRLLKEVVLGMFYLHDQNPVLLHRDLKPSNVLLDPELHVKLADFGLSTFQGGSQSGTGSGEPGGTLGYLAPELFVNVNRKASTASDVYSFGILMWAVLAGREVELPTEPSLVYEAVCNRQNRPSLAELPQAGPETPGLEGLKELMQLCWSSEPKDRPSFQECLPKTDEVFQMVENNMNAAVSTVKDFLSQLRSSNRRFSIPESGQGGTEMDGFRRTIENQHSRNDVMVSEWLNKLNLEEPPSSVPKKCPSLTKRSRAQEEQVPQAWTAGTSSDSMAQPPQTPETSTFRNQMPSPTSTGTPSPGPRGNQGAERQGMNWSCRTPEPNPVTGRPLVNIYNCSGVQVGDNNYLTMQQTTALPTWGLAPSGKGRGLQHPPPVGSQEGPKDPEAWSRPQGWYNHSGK
# TGFBR2 = TGFBR2 (Homo sapiens, UniProt P37173)
# AMPK (A1/B1/G2) = AMPK (A1/B1/G2) (Homo sapiens, UniProt Q13131)
# Sequence of AMPK (A1/B1/G2) (Q13131 whole entry): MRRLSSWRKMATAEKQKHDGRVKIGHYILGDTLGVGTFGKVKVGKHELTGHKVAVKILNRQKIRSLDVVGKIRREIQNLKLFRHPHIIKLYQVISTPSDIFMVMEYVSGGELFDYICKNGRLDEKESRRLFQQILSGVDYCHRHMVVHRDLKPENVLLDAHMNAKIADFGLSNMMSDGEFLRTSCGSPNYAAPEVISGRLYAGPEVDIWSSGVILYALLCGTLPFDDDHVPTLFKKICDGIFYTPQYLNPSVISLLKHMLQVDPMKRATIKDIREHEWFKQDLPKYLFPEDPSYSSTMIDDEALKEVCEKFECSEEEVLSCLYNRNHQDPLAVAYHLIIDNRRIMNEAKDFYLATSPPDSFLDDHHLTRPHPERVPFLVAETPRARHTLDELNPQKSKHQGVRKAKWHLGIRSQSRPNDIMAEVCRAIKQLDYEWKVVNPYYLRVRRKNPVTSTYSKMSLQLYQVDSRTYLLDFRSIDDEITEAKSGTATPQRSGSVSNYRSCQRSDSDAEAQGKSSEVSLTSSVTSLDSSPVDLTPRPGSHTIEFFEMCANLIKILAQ
# Sequence of AMPK (A1/B1/G2) (Q9UGJ0 whole entry partner): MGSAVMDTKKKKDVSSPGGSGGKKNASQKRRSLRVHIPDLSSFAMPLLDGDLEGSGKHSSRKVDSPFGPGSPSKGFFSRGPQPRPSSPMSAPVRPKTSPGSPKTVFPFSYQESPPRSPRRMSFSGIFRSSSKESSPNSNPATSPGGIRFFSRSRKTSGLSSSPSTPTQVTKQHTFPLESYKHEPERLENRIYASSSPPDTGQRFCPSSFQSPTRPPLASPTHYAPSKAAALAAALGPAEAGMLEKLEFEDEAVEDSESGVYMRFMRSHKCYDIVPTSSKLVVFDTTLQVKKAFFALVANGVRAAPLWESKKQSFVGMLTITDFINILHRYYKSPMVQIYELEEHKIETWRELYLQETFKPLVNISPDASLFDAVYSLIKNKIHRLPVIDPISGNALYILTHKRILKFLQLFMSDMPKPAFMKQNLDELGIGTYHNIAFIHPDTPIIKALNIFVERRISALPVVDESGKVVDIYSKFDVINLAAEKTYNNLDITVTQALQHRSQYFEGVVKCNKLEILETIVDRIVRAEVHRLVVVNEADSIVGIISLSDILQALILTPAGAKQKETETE
# Sequence of AMPK (A1/B1/G2) (Q9Y478 whole entry partner): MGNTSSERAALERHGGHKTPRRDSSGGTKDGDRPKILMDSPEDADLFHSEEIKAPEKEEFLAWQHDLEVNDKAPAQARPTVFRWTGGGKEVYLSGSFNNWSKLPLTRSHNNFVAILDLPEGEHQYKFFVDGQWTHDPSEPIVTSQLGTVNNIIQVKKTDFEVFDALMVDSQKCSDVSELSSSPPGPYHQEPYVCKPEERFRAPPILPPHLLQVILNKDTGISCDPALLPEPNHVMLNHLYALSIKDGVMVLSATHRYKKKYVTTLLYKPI
# MAP2K4 (MEK4) = MAP2K4 (MEK4) (Homo sapiens, UniProt P45985)
# ACVR1 (ALK2) = ACVR1 (ALK2) (Homo sapiens, UniProt Q04771)
# NUAK2 = NUAK2 (Homo sapiens, UniProt Q9H093)
# Sequence of NUAK2 (Q9H093 whole entry): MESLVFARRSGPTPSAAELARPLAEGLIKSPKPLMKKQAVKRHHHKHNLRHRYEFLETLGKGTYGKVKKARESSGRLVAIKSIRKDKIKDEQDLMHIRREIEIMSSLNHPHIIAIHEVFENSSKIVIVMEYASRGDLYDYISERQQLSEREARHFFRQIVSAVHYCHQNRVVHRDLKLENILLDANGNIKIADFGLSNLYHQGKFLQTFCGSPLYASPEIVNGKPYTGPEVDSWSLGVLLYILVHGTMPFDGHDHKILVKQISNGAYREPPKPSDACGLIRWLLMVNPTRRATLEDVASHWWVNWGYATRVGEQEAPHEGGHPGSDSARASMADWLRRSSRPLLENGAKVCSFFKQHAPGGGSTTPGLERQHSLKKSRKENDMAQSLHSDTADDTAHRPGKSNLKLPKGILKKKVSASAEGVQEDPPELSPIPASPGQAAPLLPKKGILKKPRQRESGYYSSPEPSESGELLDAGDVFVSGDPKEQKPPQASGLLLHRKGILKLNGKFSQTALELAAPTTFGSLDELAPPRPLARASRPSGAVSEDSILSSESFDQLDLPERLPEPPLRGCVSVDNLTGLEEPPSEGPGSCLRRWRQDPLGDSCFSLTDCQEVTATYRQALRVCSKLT
# KIT T670E = KIT T670E (Homo sapiens, UniProt P10721, T670E)
# STK39 (STLK3) = STK39 (STLK3) (Homo sapiens, UniProt Q9UEW8)
# STK17B (DRAK2) = STK17B (DRAK2) (Homo sapiens, UniProt O94768)
# RIPK2 = RIPK2 (Homo sapiens, UniProt O43353)
# Sequence of RIPK2 (O43353 whole entry): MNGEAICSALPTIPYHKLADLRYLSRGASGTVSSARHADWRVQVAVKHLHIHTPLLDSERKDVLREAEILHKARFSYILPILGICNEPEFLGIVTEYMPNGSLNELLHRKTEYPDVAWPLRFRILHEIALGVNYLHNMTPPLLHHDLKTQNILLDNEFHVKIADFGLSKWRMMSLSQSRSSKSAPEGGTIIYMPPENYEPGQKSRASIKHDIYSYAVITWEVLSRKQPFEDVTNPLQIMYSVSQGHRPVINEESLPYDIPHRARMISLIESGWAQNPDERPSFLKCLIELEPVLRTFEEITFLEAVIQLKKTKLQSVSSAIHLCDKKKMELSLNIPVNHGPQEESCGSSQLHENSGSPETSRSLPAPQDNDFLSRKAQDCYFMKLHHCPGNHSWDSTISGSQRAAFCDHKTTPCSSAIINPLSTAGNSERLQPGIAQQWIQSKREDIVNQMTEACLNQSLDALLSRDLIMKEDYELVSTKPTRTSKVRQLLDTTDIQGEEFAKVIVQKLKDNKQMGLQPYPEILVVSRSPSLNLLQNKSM
# TESK1 = TESK1 (Homo sapiens, UniProt Q15569)
# Sequence of TESK1 (Q15569 whole entry): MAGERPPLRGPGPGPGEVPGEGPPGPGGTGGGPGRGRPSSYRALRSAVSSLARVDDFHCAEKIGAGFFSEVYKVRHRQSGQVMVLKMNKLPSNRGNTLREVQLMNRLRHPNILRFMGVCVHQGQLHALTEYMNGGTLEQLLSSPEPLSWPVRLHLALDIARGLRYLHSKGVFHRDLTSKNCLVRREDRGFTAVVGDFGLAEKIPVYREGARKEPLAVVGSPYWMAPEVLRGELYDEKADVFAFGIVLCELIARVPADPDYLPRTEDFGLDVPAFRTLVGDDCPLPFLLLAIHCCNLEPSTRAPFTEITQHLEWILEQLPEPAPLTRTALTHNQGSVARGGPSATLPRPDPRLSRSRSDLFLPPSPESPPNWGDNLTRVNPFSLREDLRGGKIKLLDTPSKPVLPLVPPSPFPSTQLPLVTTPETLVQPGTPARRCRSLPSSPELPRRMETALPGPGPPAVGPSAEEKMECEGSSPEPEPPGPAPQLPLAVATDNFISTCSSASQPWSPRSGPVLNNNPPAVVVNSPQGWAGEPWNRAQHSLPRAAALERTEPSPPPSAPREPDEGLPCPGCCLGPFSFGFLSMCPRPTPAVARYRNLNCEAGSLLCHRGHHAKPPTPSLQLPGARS
# KIT D816V = KIT D816V (Homo sapiens, UniProt P10721, D816V)
# ZAK = ZAK (Homo sapiens, UniProt Q9NYL2)
# BRSK2 = BRSK2 (Homo sapiens, UniProt Q8IWQ3)
# Sequence of BRSK2 (Q8IWQ3 whole entry): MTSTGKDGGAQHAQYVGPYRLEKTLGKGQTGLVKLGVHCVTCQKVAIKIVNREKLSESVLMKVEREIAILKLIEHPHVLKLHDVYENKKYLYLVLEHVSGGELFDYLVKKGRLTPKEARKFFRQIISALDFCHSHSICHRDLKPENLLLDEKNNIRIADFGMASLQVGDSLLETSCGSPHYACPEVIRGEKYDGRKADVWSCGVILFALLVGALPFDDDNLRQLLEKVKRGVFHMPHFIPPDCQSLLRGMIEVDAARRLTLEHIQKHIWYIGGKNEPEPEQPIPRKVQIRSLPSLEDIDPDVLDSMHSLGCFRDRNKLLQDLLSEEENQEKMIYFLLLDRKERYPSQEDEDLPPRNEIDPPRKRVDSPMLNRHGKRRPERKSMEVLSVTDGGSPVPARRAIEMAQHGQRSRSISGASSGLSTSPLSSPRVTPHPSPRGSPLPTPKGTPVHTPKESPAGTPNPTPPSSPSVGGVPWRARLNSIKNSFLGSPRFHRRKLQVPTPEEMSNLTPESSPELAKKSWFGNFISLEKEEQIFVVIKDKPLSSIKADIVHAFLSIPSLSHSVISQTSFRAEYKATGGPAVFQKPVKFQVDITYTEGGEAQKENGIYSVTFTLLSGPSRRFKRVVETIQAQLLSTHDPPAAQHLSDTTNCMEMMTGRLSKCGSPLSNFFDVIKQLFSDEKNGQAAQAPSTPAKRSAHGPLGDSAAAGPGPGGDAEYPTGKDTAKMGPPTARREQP
# [1] = target: MAP2K6 (MKK6) S207E T211E (Homo sapiens, UniProt P52564, S207E/T211E)
# Sequence of MAP2K6 (MKK6) S207E T211E (P52564 whole entry S207E/T211E): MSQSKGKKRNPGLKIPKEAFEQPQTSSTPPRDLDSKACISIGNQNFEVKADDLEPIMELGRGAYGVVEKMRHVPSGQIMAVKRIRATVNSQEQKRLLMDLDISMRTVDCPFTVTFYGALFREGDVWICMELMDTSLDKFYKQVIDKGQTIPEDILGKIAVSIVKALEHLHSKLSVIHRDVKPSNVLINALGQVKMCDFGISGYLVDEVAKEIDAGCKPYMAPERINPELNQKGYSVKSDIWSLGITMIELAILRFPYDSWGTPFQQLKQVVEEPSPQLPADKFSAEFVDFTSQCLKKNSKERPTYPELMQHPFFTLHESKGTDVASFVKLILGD
# CAMKK1 (CAMKKA) = CAMKK1 (CAMKKA) (Homo sapiens, UniProt Q8N5S9)
# MAP3K11 (MLK3) = MAP3K11 (MLK3) (Homo sapiens, UniProt Q16584)
# FGFR1 V561M = FGFR1 V561M (Homo sapiens, UniProt P11362, V561M)
# TNK2 (ACK) = TNK2 (ACK) (Homo sapiens, UniProt Q07912)
# EPHA6 = EPHA6 (Homo sapiens, UniProt Q9UF33)
# PRKACG (PRKAC gamma) = PRKACG (PRKAC gamma) (Homo sapiens, UniProt P22612)
# MAP3K10 (MLK2) = MAP3K10 (MLK2) (Homo sapiens, UniProt Q02779)
# ACVR1 (ALK2) R206H = ACVR1 (ALK2) R206H (Homo sapiens, UniProt Q04771, R206H)
# KIT N822K = KIT N822K (Homo sapiens, UniProt P10721, N822K)
smiles,measurement,setting,value
"COc1ccc2nc3cc(Cl)ccc3c(Nc3cc(CN4CCCC4)c(O)c(CN4CCCC4)c3)c2n1 [Pyronaridine, 4-[(7-Chloro-2-methoxybenzo[b][1,5]naphthyridin-10-yl)amino]-2,6-bis(1-pyrrolidinylmethyl)phenol phosphate (1:4)]",inhibition at 1 µM,ALK C1156Y,-2%
same,inhibition at 1 µM,ABL1 H396P,7%
same,inhibition at 1 µM,CDK13/cyclin K,-13%
same,inhibition at 1 µM,MERTK (cMER) A708S,0%
same,inhibition at 1 µM,RIPK3,-7%
same,inhibition at 1 µM,TGFBR2,-4%
same,inhibition at 1 µM,AMPK (A1/B1/G2),-7%
same,inhibition at 1 µM,MAP2K4 (MEK4),1%
same,inhibition at 1 µM,ACVR1 (ALK2),0%
same,inhibition at 1 µM,NUAK2,2%
same,inhibition at 1 µM,KIT T670E,1%
same,inhibition at 1 µM,STK39 (STLK3),-19%
same,inhibition at 1 µM,STK17B (DRAK2),-4%
same,inhibition at 1 µM,RIPK2,1%
same,inhibition at 1 µM,TESK1,-2%
same,inhibition at 1 µM,KIT D816V,-3%
same,inhibition at 1 µM,ZAK,0%
same,inhibition at 1 µM,BRSK2,4%
same,inhibition at 1 µM,[1],10%
same,inhibition at 1 µM,CAMKK1 (CAMKKA),15%
same,inhibition at 1 µM,MAP3K11 (MLK3),2%
same,inhibition at 1 µM,FGFR1 V561M,5%
same,inhibition at 1 µM,TNK2 (ACK),1%
same,inhibition at 1 µM,EPHA6,-3%
same,inhibition at 1 µM,PRKACG (PRKAC gamma),2%
same,inhibition at 1 µM,MAP3K10 (MLK2),0%
same,inhibition at 1 µM,ACVR1 (ALK2) R206H,2%
same,inhibition at 1 µM,KIT N822K,14%
